Data set [1] relates to other nuclear receptors tested. The data set can be described thus: Receptor-specific transactivation reporter assay in COS-7 cells. The class given is cell-based, human. The note with it: 10 μM avermectins, Supplementary Fig. S3. Here is the method: 30 Receptor-specific ligand
rifampicin; CAR, 5 μM CITCO. […] Luciferase activities
independent experiments. *p<0.001 versus DMSO control.

The next data set deals with Wild type C57BL/6J mice. The data set is described as follows: High-fat diet fed wild type mice treated with compounds. It counts as in vivo. The note with it: for serum cholesterol levels / serum glucose levels: in a FXR dependent manner (WT versus KO); for amount of lipid in liver sections (oil red O): wild type mice, high-fat diet, versus vehicle. An excerpt: To reaffirm that the function of avermectin analogues on lipid metabolism is by directly targeting FXR signaling, we employed wild type mice and FXR gene knockout mice, both fed with high-fat diet, to study the FXR dependency of physiological effects of these avermectin analogues. […] The expression pattern of FXR target genes SHP, BSEP, solute carrier family 51 beta subunit (OSTβ) and AKR1B7 in primary hepatocytes from wild type mice and FXR gene knockout mice further confirmed the FXR-dependent manner of avermectin analogues (Supplementary Fig. S5).
(§1) 10 weeks age KK-Ay mice and C57BL/6J, homozygous FXR deficient (FXR^–/–) mice were maintained under environmentally controlled conditions with free access to standard chow diet and water as described previously. Animal experiments were conducted in the barrier facility of the Laboratory Animal Center, Xiamen University, approved by the Institutional Animal Use and Care Committee of Xiamen University, China, and the methods were carried out in accordance with the approved guidelines. Mice were fed with high fat diet containing 60% fat, 20% protein and 20% carbohydrate (Research Diets, D12492, New Brunswick, USA), and the food intake were measured every second day. […] After 6 h fasting, mice were weighed and sacrificed. Livers were weighed and taken photos, and part of each liver was fixed in 4% paraformaldehyde. Liver histology characterization was analyzed by haematoxylin and eosin (H&E) staining with paraffin-embedded sections by standard procedures. Other tissues were collected and frozen in liquid nitrogen for use, and serums were collected to measure metabolite parameters.
(§2) Fresh liver tissues were embedded in optimum cutting temperature compound (OCT) and cryosectioned. The sections were fixed in 4% paraformaldehyde in PBS, and were stained with 0.3% oil red O according to standard procedures.
(§3) Serum glucose was analyzed using glucose oxidase method (Applygen, Beijing, China). Serum cholesterol and triglyceride were analyzed using Cholesterol Assay Kit and Triglyceride Assay Kit (Bioassay Systems, USA), respectively. Liver triglyceride was analyzed using Tissue triglyceride assay kit (Applygen, Beijing, China).

For a further data set, the system named is KK-Ay mice. The data set is described as follows: High-fat diet fed KK-Ay mice treated 14 days (liver histology, metabolic parameters, GTT, ITT). The class given is in vivo. The note with it: for insulin sensitivity (ITT) / glucose tolerance (GTT): KK-Ay mice treated 10 days; for insulin sensitivity (ITT): 1 U/kg insulin i.p.; for glucose tolerance (GTT): 1 g/kg glucose i.p.; for serum cholesterol level / serum triglyceride level / body weight / hepatic lipid / steatosis by H&E staining of liver sections / lipid accumulation by oil red O staining of liver sections / liver morphology (colour): KK-Ay mice; for serum cholesterol level / serum triglyceride level / body weight: 1.3 mg/kg i.p. 14 days; for body weight: versus vehicle, eprinomectin and moxidectin groups; for hepatic lipid / steatosis by H&E staining of liver sections / lipid accumulation by oil red O staining of liver sections / liver morphology (colour): high-fat diet, i.p. once daily 14 days, avermectin analogues 1.3 mg/kg, GW4064 30 mg/kg. Here is the method: To further confirm the lipid accumulation, we performed oil red O staining of the frozen liver sections (Fig. 2c).
as §1, §2
Mice treated with compounds for 10 days were fasted for 6 h with free access to water. For the glucose tolerance test (GTT), 1 g/kg of glucose was i.p. injected and blood glucose was measured with the Accu-Check Performa (Roche Applied Science, Mannheim, Germany) at 0, 30, 60, 90, 120,150 and 180 min. For the insulin tolerance test (ITT), 1 U/kg of recombinant human insulin (Novolin 30R; Novo Nordisk, Bagsvaerd, Denmark) was i.p. injected, and blood glucose was measured at 0, 30, 60, 120 and 150 min after insulin injection.
as §3

The next data set concerns T1, FXR LBD.
T1 construct: made in house; host or cells: E. coli BL21 (DE3)
The data set is described as follows: Peptide profiling / peptide competition AlphaScreen assay. The class given is biochemical. The note with it: 16 unlabelled peptides (20 μM) competing with biotin-SRC2-3; 1 μM compound.

In a further data set the target is T2, FXR (Homo sapiens, UniProt Q96RI1).
T2 sequence (Q96RI1 1-472 isoform Q96RI1-2): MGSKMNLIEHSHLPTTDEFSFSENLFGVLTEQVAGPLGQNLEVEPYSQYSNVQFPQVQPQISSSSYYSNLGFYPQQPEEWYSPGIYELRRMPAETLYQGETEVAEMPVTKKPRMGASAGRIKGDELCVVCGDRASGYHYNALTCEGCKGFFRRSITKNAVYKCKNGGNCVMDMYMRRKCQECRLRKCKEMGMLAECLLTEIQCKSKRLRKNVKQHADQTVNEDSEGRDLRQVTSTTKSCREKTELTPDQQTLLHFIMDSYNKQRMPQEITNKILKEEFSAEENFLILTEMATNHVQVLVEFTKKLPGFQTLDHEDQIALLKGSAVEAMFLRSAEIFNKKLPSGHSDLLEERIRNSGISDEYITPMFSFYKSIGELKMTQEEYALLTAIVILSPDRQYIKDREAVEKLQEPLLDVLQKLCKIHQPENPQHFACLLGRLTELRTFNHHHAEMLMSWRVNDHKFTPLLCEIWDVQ
The data set is described as follows: Cell-based reporter assay, transient transfection of COS-7 cells (EcRE reporter). The note with it: for transcriptional activity of FXR: 1 μM compounds, Fig. 4b, EcRE reporter.

For data set [2], the system named is genes related with lipid metabolism / FXR target genes. The data set is described as follows: Real-time PCR of hepatic mRNA levels in treated KK-Ay mice. The note with it: KK-Ay mice liver. It counts as in vivo. Here is the method:
as §1
Total RNA was isolated using Tissue RNA kit (Omega Bio-Tek, GA). The first strand cDNA were obtained by TAKARA reverse transcription kit. Real-time quantitative PCR were performed on a CFX96™ Real-Time PCR Detection System (Bio-Rad) using SYBR Premix Ex TaqTM (TAKARA). Relative mRNA expression levels were normalized to actin levels.

Another data set concerns FXR H447F mutation. The data set can be described thus: Reporter assay with mutated FXR. The class given is cell-based. The note with it: 1 μM, Fig. 8e. An excerpt: For H447F mutation, the corresponding residue of histidine with a side chain of imidazole group was replaced by the nonpolar phenylalanine with a side chain of benzene ring (Fig. 8c).
The target in data set [3] is T3, FXR ligand binding domain (LBD) (Homo sapiens, UniProt Q96RI1).
T3 construct: made in house; host or cells: E. coli BL21 (DE3)
T3 sequence (Q96RI1 262-486 limits assumed): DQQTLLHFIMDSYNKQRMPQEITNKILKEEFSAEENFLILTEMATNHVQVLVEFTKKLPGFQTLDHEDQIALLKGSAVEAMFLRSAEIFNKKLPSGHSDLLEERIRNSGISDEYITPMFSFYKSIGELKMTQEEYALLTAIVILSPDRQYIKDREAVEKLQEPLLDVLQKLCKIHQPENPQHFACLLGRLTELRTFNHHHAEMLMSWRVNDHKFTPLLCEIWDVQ
The data set is described as follows: AlphaScreen cofactor binding assay. The note with it: for coactivators recruitment by FXR (biotin-SRC1–2, biotin-SRC2–3): 0.5 μM compound, Fig. 4a. The class given is biochemical. The protocol: The binding of the cofactor peptide motifs to FXR LBD in response to ligands was determined by AlphaScreen assays using a hexahistidine detection kit from Perkins-Elmer (USA) as described before. The FXR LBD protein was purified as described previously.

A further data set relates to FXR A291W mutation. The data set can be described thus: Reporter assay with mutated FXR. The class given is cell-based. The note with it: 1 μM, Fig. 8e.
The test system of the next data set is diabetic mice. The note with it: cited from earlier work.

Structures are written as SMILES.

Description for FXR LBD: To determine whether there is a conformational difference of FXR with various avermectin analogues, we performed peptide-profiling experiments using a panel of 16 unlabelled peptides selected from both coactivators and corepressors to compete off the binding of the third LXXLL motif of SRC2 (SRC2–3) to FXR in response to the binding of avermectin analogues (Fig. 5).
Values are the means ± SEM of three independent experiments.

As for `CCC(C)C1OC2(C=CC1C)CC1CC(CC=C(C)C(OC3CC(OC)C(OC4CC(OC)C(O)C(C)O4)C(C)O3)C(C)C=CC=C3COC4C(O)C(C)=CC(C(=O)O1)C34O)O2` (centres unmarked) [abamectin], the “impact on other nuclear receptors tested (transactivation)” value in data set [1] is recorded as “no substantial impact”. Further, in the data set with Wild type C57BL/6J mice, the serum cholesterol levels result is “lowered”, the serum glucose levels entry is “lowered” and the “amount of lipid in liver sections (oil red O)” value (“amount of lipid” for short) is on record as “significantly reduced the amount of lipid”. In addition, in the data set on KK-Ay mice, the “insulin sensitivity (ITT)” value is recorded as “significantly improved”, the “glucose tolerance (GTT)” value was “significantly improved”, the serum cholesterol level result is “significantly decreased” and the serum triglyceride level result is given as “significantly decreased”. Further, in the data set on KK-Ay mice, the body weight result is “significantly lower”, the “hepatic lipid / steatosis by H&E staining of liver sections” value (“hepatic lipid / steatosis” below) is “nearly completely reverse the liver from hepatic steatosis”, the “lipid accumulation by oil red O staining of liver sections” value (“lipid accumulation by oil red O staining” for short) is listed as “dramatically reduced the lipid accumulation” and the “liver morphology (colour)” value is recorded as “much more fresh red tissue”.

With `CO[C@H]1C[C@H](O[C@H]2[C@H](C)O[C@@H](O[C@@H]3/C(C)=C/C[C@@H]4C[C@@H](C[C@]5(C=C[C@H](C)[C@@H](C6CCCCC6)O5)O4)OC(=O)[C@@H]4C=C(C)[C@@H](O)[C@H]5OC/C(=C\C=C\[C@@H]3C)[C@]54O)C[C@@H]2OC)O[C@@H](C)[C@@H]1O` [doramectin], the “peptide profile of ligand-bound FXR” value in the data set on FXR LBD was “identical peptide profiles as the ivermectin”. Further, the “impact on other nuclear receptors tested (transactivation)” value in data set [1] is “no substantial impact”. In addition, the “transcriptional activity of FXR” value at FXR is recorded as “selectively activated”. The “ligand character for FXR” value on FXR (concluded from AlphaScreen and reporter assays) is reported as “partial agonists”. In addition, in data set [2], the “hepatic expression of BSEP” value was “induced”, the “hepatic expression of SHP” value is “induced”, the “hepatic level of CYP8b1” value was “decreased” and the “hepatic mRNA level of AKR1B7” value is given as “dramatically induced”. In addition, in data set [2], the “hepatic mRNA level of SCD1” value is recorded as “substantially decreased” and the “hepatic mRNA level of SREBP-1c” value is given as “substantially decreased”. Also, the “transcriptional activity of H447F mutated FXR” value with FXR H447F mutation is recorded as “increased the FXR activity”. Besides, the “coactivators recruitment by FXR (biotin-SRC1–2, biotin-SRC2–3)” value (“coactivators recruitment by FXR” for short) in data set [3] is on record as “strongly promoted”. In addition, the “recruitment of nuclear receptor corepressor (NCoR)-2 by FXR” value in data set [3] (Fig. 4e) is reported as “induced the recruitment”. Further, the “transcriptional activity of A291W mutated FXR” value in the data set with FXR A291W mutation is listed as “abolished the transcriptional activity”. Further, in the data set on Wild type C57BL/6J mice, the serum cholesterol levels entry is “lowered”, the serum glucose levels result was “lowered” and the “amount of lipid” value is on record as “significantly reduced the amount of lipid”. For the same molecule, in the data set with KK-Ay mice, the “insulin sensitivity (ITT)” value is on record as “significantly improved”, the “glucose tolerance (GTT)” value is on record as “significantly improved”, the serum cholesterol level entry is on record as “significantly decreased” and the serum triglyceride level result is “significantly decreased”. Further, in the data set with KK-Ay mice, the body weight entry is reported as “significantly lower”, the “hepatic lipid / steatosis” value is “nearly completely reverse the liver from hepatic steatosis”, the “lipid accumulation by oil red O staining” value is recorded as “dramatically reduced the lipid accumulation” and the “liver morphology (colour)” value was “much more fresh red tissue”.

As for `CCC(C)C1OC2(CCC1C)CC1CC(CC=C(C)C(OC3CC(OC)C(OC4CC(OC)C(O)C(C)O4)C(C)O3)C(C)C=CC=C3COC4C(O)C(C)=CC(C(=O)O1)C34O)O2` (centres unmarked) [ivermectin], in data set [2], the “hepatic expression of BSEP” value was “induced”, the “hepatic expression of SHP” value is given as “induced”, the “hepatic level of CYP8b1” value is given as “decreased” and the “hepatic mRNA level of AKR1B7” value is on record as “dramatically induced”. For the same molecule, in [2], the “hepatic mRNA level of SCD1” value is listed as “substantially decreased” and the “hepatic mRNA level of SREBP-1c” value is listed as “substantially decreased”. For the same molecule, in the data set on diabetic mice, the serum cholesterol level entry is reported as “decreased” and the serum glucose level result is listed as “decreased”. The “coactivators recruitment by FXR” value in data set [3] is reported as “strongly promoted”. For the same molecule, in the data set on FXR A291W mutation, the “transcriptional activity of A291W mutated FXR” value is “abolished the transcriptional activity”. Moreover, in the data set on Wild type C57BL/6J mice, the “amount of lipid” value was “significantly reduced the amount of lipid”. In the data set with KK-Ay mice, the serum cholesterol level result is recorded as “significantly decreased”, the serum triglyceride level entry is listed as “significantly decreased”, the body weight entry is on record as “significantly lower” and the “hepatic lipid / steatosis” value was “nearly completely reverse the liver from hepatic steatosis”. Also, in the data set with KK-Ay mice, the “lipid accumulation by oil red O staining” value is reported as “dramatically reduced the lipid accumulation” and the “liver morphology (colour)” value is on record as “much more fresh red tissue”.

As to `CO/N=C1\C[C@]2(C[C@@H]3C[C@@H](C/C=C(\C)C[C@@H](C)/C=C/C=C4\CO[C@@H]5[C@H](O)C(C)=C[C@@H](C(=O)O3)[C@]45O)O2)O[C@H](/C(C)=C/C(C)C)[C@H]1C` [moxidectin], the “transcriptional activity of FXR” value at FXR is recorded as “failed to activate”. In [2], the “hepatic expression of BSEP” value was “did not display these regulations”, the “hepatic expression of SHP” value was “did not display these regulations”, the “hepatic level of CYP8b1” value was “did not display these regulations” and the “hepatic mRNA level of AKR1B7” value is listed as “did not display these regulations”. In data set [2], the “hepatic mRNA level of SCD1” value was “did not display these regulations” and the “hepatic mRNA level of SREBP-1c” value is on record as “did not display these regulations”. Besides, in data set [3], the “coactivators recruitment by FXR” value is recorded as “failed to induce”. In the data set on KK-Ay mice, the serum cholesterol level result was “did not”, the serum triglyceride level entry is given as “did not” and the “liver morphology (colour)” value was “grease white”.
